Reference: patent US20260317272A1, “USE OF STROBILURIN TYPE COMPOUNDS FOR COMBATING PHYTOPATHOGENIC FUNGI CONTAINING AN AMINO ACID SUBSTITION F129L IN THE MITOCHONDRIAL CYTOCHROME B PROTEIN CONFERRING RESISTANCE TO QO INHIBITORS XVI” (priority 2023, published 2026)

What was measured:
Puccinia striiformis = experiment: Use Example 10: preventative control of wheat stripe rust on wheat (PUCCST P7); format: in vivo; conditions: 16 ppm, untreated 90%
Description: (§1) The compound was dissolved in a mixture of acetone and/or dimethylsulfoxide and the wetting agent/emulsifier Wettol, which is based on ethoxylated alkylphenoles, in a ratio (volume) solvent-emulsifier of 99 to 1 to give a total volume of 5 ml. Subsequently, water was added to total volume of 100 ml. This stock solution was then diluted with the described solvent-emulsifier-water mixture to the final concentration given in the tables below.
Use Example 10. Preventative Control of Wheat Stripe Rust on Wheat Caused by Puccinia striiformis (PUCCST P7)
The first two developed leaves of potted wheat seedling were sprayed to run-off with previously described spray solution, containing the concentration of active ingredient or their mixture as described below. Seven days later the plants were inoculated with spores of Puccinia striiformis. To ensure the success of the artificial inoculation, the plants were transferred to a chamber without light and a temperature of 5° C. for 24 h. Then the trial plants were cultivated for up to 14 days in a greenhouse chamber at 16° C. and a relative humidity of minimum 75%. The extent of fungal attack on the leaves was visually assessed as % diseased leaf area.

Puccinia triticina [1] = experiment: Use Example 15: activity against Puccinia triticina (PUCCRT, brown rust on wheat) in field; format: in vivo; conditions: for Efficacy, %: Abbot's formula, B23; for infection rate, %: B23 (23 days after second treatment), flag leaf
Description: Use Example 15. Activity Against Puccinia triticina (PUCCRT, Brown Rust on Wheat) in Field
Trials were conducted under field conditions in Spain. Spring wheat was planted and grown with adequate supply of water and nutrients. Two applications (A and B) of the test compounds were made at onset of disease (application A) and at second application at an interval of 22 days (application B). The spray solutions were prepared by mixing experimental formulations of the test compounds (50 g/L EC) in water, adding 124 g/ha Plurafac LF301 and Plurafac LF1312 (BASF, low-foaming non-ionic surfactants consisting of alkoxylated, predominantly unbranched fatty alcohols containing higher alkene oxides alongside ethylene oxide), respectively. The spray solutions were applied with 300 I/ha spray volume with a flat fan nozzle.
The infestation levels for brown rust (Puccinia triticina) were evaluated 23 days after the second fungicide treatment (B23), a mean value across the flag leaf level was calculated. In addition, efficacy was calculated using Abbot's formula as in use example 14.

Phakopsora pachyrhizi [2] = experiment: Use Example 14: activity against Asian soybean rust under semi field conditions; format: in vivo; conditions: 100 g a.i./ha; for B14 Efficacy, % / Efficacy, %: Abbot's formula; for B14 Efficacy, % / B14 infection rate, %: 14 days after second application, semi field, Brazil; for B14 infection rate, %: sprayed twice, 14 day interval; for Efficacy, %: B14; for infection rate, %: B14 (14 days after second application)
Description: Use Example 14. Activity Against Asian Soybean Rust (Phakopsora pachyrhizi) Under Semi Field Conditions
Soybeans were grown in an area covered with an insect proof net under natural temperature and light regime in Brazil. Seeds were sown in a tray, allowed to germinate and grow for 14-23 days, and afterwards transplanted to containers. Subsequently, the plants were grown for another 27-35 days before spray application.
The soybean plants were sprayed twice at a spray interval of 14 days. The spray solutions were prepared by mixing experimental formulations (100 g/l SC), in water, adding the adjuvant Mees™ (BASF, soybean oil methyl ester 824.3 g/L, EC) at 0.5 I/ha. The plants were sprayed in a mobile spray cabinet with a horizontal boom. The spray solutions were applied with 500 L/ha spray volume with a flat fan nozzle.
The plants were inoculated with natural population of Phakopsora pachyrhizi spore suspension one day after each spray application. Plants were incubated in a mobile chamber with a misting system at saturated humidity following each inoculation.
Soybean rust infestation was assessed as percent infected leaf area at 14 days after second application (B14). These percent values were converted in efficacies. The efficacy (E) was calculated as follows using Abbot's formula: […]

Phakopsora pachyrhizi [3] = experiment: Use Example 3: protective control of soybean rust on soybeans (PHAKPA P2); format: in vivo; conditions: 16 ppm, 2 days before inoculation, F129L strain, up to 14 days, untreated 90
Description: as §1
Use Example 3. Protective Control of Soybean Rust on Soybeans Caused by Phakopsora pachyrhizi (PHAKPA P2)
Leaves of potted soybean seedlings were sprayed to run-off with the previously described spray solution, containing the concentration of active ingredient or their mixture as described below. The plants were allowed to air-dry. The trial plants were cultivated for 2 days in a greenhouse chamber at 23-27° C. and a relative humidity between 60 and 80%. Then the plants were inoculated with spores of Phakopsora pachyrhizi. The strain used contains the amino acid substitution F129L in the mitochondrial cytochrome b protein conferring resistance to Qo inhibitors. To ensure the success the artificial inoculation, the plants were transferred to a humid chamber with a relative humidity of about 95% and 20 to 24° C. for 24 hr. The trial plants were cultivated for up to 14 days in a greenhouse chamber at 23 to 27° C. and a relative humidity between 60 and 80%. The extent of fungal attack on the leaves was visually assessed as % diseased leaf area, the disease level of untreated controls was usually higher than 85%.

Pyrenophora teres = experiment: Use Example 11: control of net blotch on barley (PYRNTE P1); format: in vivo, Pyrenophora (syn. Drechslera) teres; conditions: F129L strain, inoculated the next day, 16 ppm, untreated 75%
Description: as §1
Use Example 11. Control of Net Blotch on Barley Caused by Pyrenophora teres (PYRNTE P1)
The first fully developed leaves of potted barley plants were sprayed to run-off previously described spray solution, containing the concentration of active ingredient or their mixture mentioned in the table below. The next day the treated plants were inoculated with an aqueous spore suspension Pyrenophora (syn. Drechslera) teres. The strain used contains the amino acid substitution F129L in the mitochondrial cytochrome b protein conferring resistance to Qo inhibitors. Then the trial plants were cultivated for up to 19 days at 20-24° C. and a relative humidity close to 70%, the extent of fungal attack on the leaves was visually assessed as % diseased leaf area.

Puccinia triticina [4] = experiment: Use Example 6: preventative control of brown rust on wheat (PUCCRT P7); format: in vivo, Puccinia triticina (syn. P. recondita); conditions: 16 ppm, seven days before inoculation, 9 to 12 days, untreated 85
Description: as §1
Use Example 6. Preventative Control of Brown Rust on Wheat Caused by Puccinia triticina (Syn. P. recondita) (PUCCRT P7)
The first two developed leaves of potted wheat seedling were sprayed to run-off with previously described spray solution, containing the concentration of active ingredient or their mixture as described below. Seven days later the plants were dusted with spores of Puccinia triticina. To ensure the success of the artificial inoculation, the plants were transferred to a humid chamber without light and a relative humidity of 95 to 99% and 20 to 24° C. for 24 h. Then the trial plants were cultivated for 9 to 12 days in a greenhouse chamber at 20 to 24° C. and a relative humidity between 65 and 70%. The extent of fungal attack on the leaves was visually assessed as % diseased leaf area.

[5] = Table 8, 75 g a.i./ha, untreated infection 75%
[6] = Table 8, 150 g a.i./ha, untreated infection 75%
[7] = Table 8, 75 g a.i./ha, untreated 75%
[8] = Table 8, 150 g a.i./ha, untreated 75%
[9] = Table 5, untreated infection 71%
[10] = Table 10, 75 g a.i./ha, untreated infection 50%
[11] = Table 10, 150 g a.i./ha, untreated infection 50%
[12] = Table 10, 75 g a.i./ha, untreated 50%
[13] = Table 10, 150 g a.i./ha, untreated 50%
[14] = Table 3, untreated infection 56

Row | Compound | Diseased leaf area (%) (Puccinia striiformis) | Efficacy, % (Puccinia triticina [1]; [5]) [%] | Efficacy, % (Puccinia triticina [1]; [6]) [%] | infection rate, % (Puccinia triticina [1]; [7]) [%] | infection rate, % (Puccinia triticina [1]; [8]) [%] | Diseased leaf area (%) (Phakopsora pachyrhizi [3]) | Diseased leaf area (%) (Pyrenophora teres) | Diseased leaf area (%) (Puccinia triticina [4]) | also measured
1 | COC/C(=N\OCc1c(C)cccc1/C(=N\OC)C(=O)OC)c1c(F)cc(F)cc1F [Compound 2, methyl (2E)-2-methoxyimino-2-[2-[[(Z)-[2-methoxy-1-(2,4,6-trifluorophenyl)ethylidene]amino]oxymethyl]-3-methyl-phenyl]acetate] | 11 | 23 | 40 | 58 | 45 | 6 | 6 | – | B14 Efficacy, % (Phakopsora pachyrhizi [2]; Table 4, untreated infection 52): 54%; B14 infection rate, % (Phakopsora pachyrhizi [2]; Table 4, untreated 52): 24%
2 | CNC(=O)/C(=N/OC)c1cccc(C)c1CO/N=C(\COC)c1c(F)cc(OC)cc1F [Compound 7, (2E)-2-[2-[[(Z)-[1-(2,6-difluoro-4-methoxy-phenyl)-2-methoxy-ethylidene]amino]oxymethyl]-3-methyl-phenyl]-2-methoxyimino-N-methyl-acetamide] | 0 | 92 | 97 | 6 | 2 | 0 | – | 6 | Efficacy, % (Phakopsora pachyrhizi [2]; Table 7, untreated infection 63%): 40%; infection rate, % (Phakopsora pachyrhizi [2]; Table 7, untreated 63%): 38%
3 | CO/C=C(/C(=O)OC)c1cccc(C)c1CO/N=C(\COC)c1ccc(F)cc1Cl [Compound 3] | 0 | – | – | – | – | 1 | 3 | 9 | Efficacy, % (Puccinia triticina [1]; Table 9, 75 g a.i./ha, untreated infection 74%): 66%; Efficacy, % (Puccinia triticina [1]; Table 9, 150 g a.i./ha, untreated infection 74%): 73%; infection rate, % (Puccinia triticina [1]; Table 9, 75 g a.i./ha, untreated 74%): 25%; infection rate, % (Puccinia triticina [1]; Table 9, 150 g a.i./ha, untreated 74%): 20%; Efficacy, % (Phakopsora pachyrhizi [2]; [9]): 56%; infection rate, % (Phakopsora pachyrhizi [2]; Table 5, untreated 71%): 31%
4 | CO/C=C(/C(=O)OC)c1cccc(C)c1CO/N=C(\COC)c1ccc(Cl)cc1Cl [Compound 6, methyl (E)-2-[2-[[(Z)-[1-(2,4-dichlorophenyl)-2-methoxy-ethylidene]amino]oxymethyl]-3-methyl-phenyl]-3-methoxy-prop-2-enoate] | 0 | – | – | – | – | 13 | 7 | 11 | Efficacy, % (Puccinia triticina [1]; [10]): 40%; Efficacy, % (Puccinia triticina [1]; [11]): 50%; infection rate, % (Puccinia triticina [1]; [12]): 30%; infection rate, % (Puccinia triticina [1]; [13]): 25%; Efficacy, % (Phakopsora pachyrhizi [2]; [9]): 56%; infection rate, % (Phakopsora pachyrhizi [2]; Table 5, untreated 71%): 31%
5 | CO/C=C(/C(=O)OC)c1cccc(C)c1CO/N=C(\COC)c1c(F)cc(F)cc1F [Compound 4, methyl (E)-3-methoxy-2-[2-[[(Z)-[2-methoxy-1-(2,4,6-trifluorophenyl)ethylidene]amino]oxymethyl]-3-methyl-phenyl]prop-2-enoate] | 0 | 95 | 97 | 4 | 2 | 0 | 5 | 7 | Efficacy, % (Phakopsora pachyrhizi [2]; Table 6, untreated infection 62%): 66%; infection rate, % (Phakopsora pachyrhizi [2]; Table 6, untreated 62%): 21%
6 | CNC(=O)/C(=N/OC)c1cccc(C)c1CO/N=C(\COC)c1ccc(F)c(F)c1 [Compound 5, (2E)-2-[2-[[(Z)-[1-(3,4-difluorophenyl)-2-methoxy-ethylidene]amino]oxymethyl]-3-methylphenyl]-2-methoxyimino-N-methyl-acetamide] | 7 | – | – | – | – | 0 | 3 | 6 | Efficacy, % (Puccinia triticina [1]; [10]): 84%; Efficacy, % (Puccinia triticina [1]; [11]): 92%; infection rate, % (Puccinia triticina [1]; [12]): 8%; infection rate, % (Puccinia triticina [1]; [13]): 4%; B14 Efficacy, % (Phakopsora pachyrhizi [2]; [14]): 57%; B14 infection rate, % (Phakopsora pachyrhizi [2]; Table 3, untreated 56): 24%
7 | CNC(=O)/C(=N/OC)c1cccc(C)c1CO/N=C(\COC)c1c(F)cc(F)cc1F [Compound 1, (2E)-2-methoxyimino-2-[2-[[(Z)-[2-methoxy-1-(2,4,6-trifluorophenyl)ethylidene]amino]oxymethyl]-3-methyl-phenyl]-N-methyl-acetamide] | 13 | 60 | 89 | 30 | 8 | 0 | 5 | 10 | B14 Efficacy, % (Phakopsora pachyrhizi [2]; [14]): 57%; B14 infection rate, % (Phakopsora pachyrhizi [2]; Table 3, untreated 56): 24%
